From patent US7341988B2, “Method of treating influenza with geranyl-geranyl acetone” (Eisai R&D Management Co., Ltd., priority 2001, dated 2008)

Columns and labels:
[1] = test system: influenza A virus, A/PR/8/34 (H1 N1) strain; experiment: Weight loss in mouse PR8 infection model; type: in vivo, BALB/cN mice; details: GGA treated groups (oral every 12 hours for 3 weeks before infection) except the 75G-PR8 group; control weight loss reaching 30%
Protocol: FIG. 1 indicates an improvement trend of clinical infection symptoms caused by administration of GGA in a mouse PR8 infection model according to the present invention. BALC/c mice that used in the present invention were randomly allotted into the following 4 groups: (1) Control group (n=30) is transnasally administered 2×10^5 PFU of A/PR/8/34; the GGA pre-treatment groups were orally administered GGA every 12 hours for 3 weeks in doses of: (2) 150 mg/kg (150G-PR8 group; n=30), (3) 75 mg/kg (75G-PR8 group; n=30), (4) 15 mg/kg (15G-PR8 group; n=30) and were infected with PR8 after 3 weeks in the same manner. The body weights of the mice were measured 1, 2, 3, 4, 7, and 10 days after infection;
(§1) The virus used in the present invention was the influenza A virus, A/PR/8/34 (H1 N1) strain (hereinafter referred to “PR8”); the mice were 6-week old female SPF (specific pathogen-free) BALB/cN mice (Charles River Japan Co., Ltd.); and the cells were A549 cells derived from human alveolar epithelial cell.
First, the aforementioned mice were raised in a cage for each 4 mice under clean conditions and allowed free access to sterilized feed and water. […]

[2] = test system: influenza A virus, A/PR/8/34 (H1 N1) strain; experiment: Viral replication in the lungs of infected mice, plaque assay using MDCK; type: in vivo, BALB/cN mice
From the text: as §1
(§2) The mice were randomly divided into the following 4 treatment groups, and tested: (1) Control group; intranasl infection with PR8 (2×10^5 PFU) (2) 150G-PR8; group; after administration of 150 mg/kg of GGA, infected with the same amount of PR8 in the same manner as the control group; (3) 75G-PR8 group; after administration of 75 mg/kg of GGA, infected with the same amount of PR8 in the same manner as the control group; (4) 15G-PR8 group; after administration of 15 mg/kg of GGA, infected with the same amount of PR8 in the same manner as the control group. The aforementioned group (1) refers to the control group, and groups (2) to (4) refer to the GGA treated group prior to infection. The GGA treated groups were orally administered GGA every 12 hours for 3 weeks.
FIG. 2 indicates the effects of GGA on viral replication in the lungs of the mice of the various groups after infection by an influenza virus according to the present invention. Here, the assay of virus in the lung was conducted by plaque assay using MDCK.

[3] = test system: viral nucleoprotein (NP) of PR8; experiment: Viral nucleoprotein (NP) synthesis in the lungs of infected mice, Western blot and EIA; type: in vivo, BALB/cN mice; details: GGA treated groups compared with control group
From the text: as §1, §2
FIG. 3 indicates the results of the effects of GGA on viral nucleoprotein (called “NP” hereinafter) synthesis in the lungs of the mice of the various groups after infection by an influenza virus according to the present invention. The amount of NP synthesis was measured with Western blot analysis. […]

HSP70 [4] = type: in vivo, BALB/c mice
HSP70 [5] = experiment: HSP induction in A549 cells (northern blot, 35S-methionine pulse labeling, western blot); type: cell-based, human
[6] = test system: influenza A virus, A/PR/8/34 (H1 N1) strain; type: cell-based; details: A549 cells
M×A genes = experiment: Expression of antiviral gene MxA in PR8-infected A549 cells, northern blot; type: cell-based, human
From the text: Studied next were the effects of GGA treatment on the expression of antiviral genes after infection by PR8, and the results are indicated in FIGS. 12 and 13. […] It should be noted that the GAPDH in FIG. 12 was used as a control in the same way as previously described in FIG. 5.

[7] = test system: interferon-inducible double-stranded RNA activated protein kinase (PKR); experiment: PKR mRNA expression in A549 cells, RT-PCR; type: cell-based, human; details: β-actin control
From the text: FIG. 13 indicates the results of using RT-PCR to assay the mRNA expression of interferon-inducible double-stranded RNA activated protein kinase (hereinafter referred to “PKR”), which has an antiviral action. […] It should be noted that β-actin in this diagram was used was a control.

[8] = GGA treatment (+), pulse labeling

CC(=O)CC/C=C(\C)CC/C=C(\C)CC/C=C(\C)CCC=C(C)C [GGA, 6, 10, 14, 18-tetramethyl-5,9, 13, 17-nonadecatetraen-2-one]
weight loss caused by PR8 infection [1]: almost no weight loss
time after infection at which virus was completely eliminated from the lungs ([2]; 75G-PR8 group (75 mg/kg GGA)): 4 days
time after infection at which virus was completely eliminated from the lungs ([2]; 150G-PR8 group (150 mg/kg GGA)): 3 days
growth of virus in the lungs ([2]; GGA 150, 75, 15 mg/kg oral every 12 hours for 3 weeks before PR8 infection, vs control): suppressed in a GGA dose-dependent manner
NP synthesis in the lungs, Western blot [3]: suppression of NP synthesis in a dose dependent manner
capacity to synthesize NP after infection with PR8, EIA [3]: notably reduced
amount of HSP70 mRNA expressed in the lungs after PR8 infection (HSP70 [4]; […], GAPDH control): dependent on the amount of GGA administered
expression of HSP70 in the lungs, GGA alone (HSP70 [4]; mouse, in vivo): induced in a dose dependent manner
time of peak HSP70 expression after administering GGA (HSP70 [5]; A549 cells, western blot with HSP70 antibodies): 6 h
expression of HSP70 mRNA in A549 cells (HSP70 [5]; northern blot, GAPDH control): induced in a concentration and time dependent manner
HSP70 synthesis in the early period of infection [6, 8]: enhancement of HSP70 synthesis was observed
time after infection at which NP synthesis began [6, 8]: > 12 h
NP synthesis capacity compared to GGA treatment (−) ([6]; PR8 infection, pulse labeling): suppressed
capacity to synthesize viral proteins of PR8 (HA, NP, M1, NS1) ([6]; compared to the control): notably suppressed
duration of HSP70 expression after PR8 infection ([6]; densitometric analysis at 3, 6, 12, 24 hours): up to 12 hours
time after infection up to which expression of NP was prevented ([6]; western blot): up to 12 hours
expression of M×A genes (M×A genes; A549 cells after infection with PR8, GAPDH control): enhanced
expression of HSP mRNA after PR8 infection (M×A genes; A549 cells after infection with PR8, northern blot): enhanced
expression of PKR mRNA [7]: enhanced expression
